Test results reported in patent publication US11634458B2, “Peptides and compositions for use in cosmetics and medicine” (LIPOTRUE, S.L., priority 2018, dated 2023).

Columns and labels:
Munc18/Syntaxin-1 = Munc18/Syntaxin-1 (Homo sapiens, UniProt Q16623); experiment: ELISA-based in vitro Munc18/Syntaxin-1 binding assay; conditions: peptide 0.1, 0.5 and 1 mM; Munc18 100 nM, Syntaxin-1 10 and 5 nM; control = 100% binding
Experimental: The capacity of the peptides to inhibit Munc18 protein-protein interaction with Syntaxin-1, a SNARE complex protein, was functionally evaluated by means of an ELISA-based in vitro Munc18/Syntaxin-1 binding assay. Briefly, the above-mentioned peptides at 0.1, 0.5 and 1 mM were preincubated with their target protein Syntaxin-1 (GST-tagged) at 10 and 5 nM in buffer (20 mM Hepes, 150 mM NaCl, 2 mM MgC2, 2 mM DTT, 0.5% Triton-X100 and 0.5% non-fat milk) for 3 hours at RT. Meanwhile, His-tagged Munc18 was bound to a Nickel-coated 96-well plate at 100 nM and incubated at RT for 1.5 hours. Non-bound protein was subsequently washed away before blocking wells with non-fat milk in wash buffer (PBS+0.02% Triton-X100) for additional 30 minutes. GST-tagged Syntaxin-1 preincubated with the peptides was then added at 10 and 5 nM to the plate and incubated for 2 h at RT. Wells were washed three times with wash buffer before incubation with the primary antibody (GST tag polyclonal antibody—Thermofisher Scientific, Massachusetts, USA) for 45 minutes. Finally, after washing again, HRP-conjugated secondary antibody (Anti-Rabbit-IgG-HRP—Sigma, Missouri, USA) was added and incubated at RT. TMB substrate (3,3′,5,5′-Tetramethylbenzidine) was used to develop signal. […] Amount of binding of Syntaxin-1 protein to Munc18 protein was analysed by measuring absorbance at 450 nm.

[1] = test system: human muscle cells and motor neurons derived from hiPSC co-cultures; experiment: Contraction frequency in human muscle cell / hiPSC motor neuron co-cultures; type: cell-based
Experimental: The potential of said peptide Ac-SEQ ID NO: 8-NH2 to modulate the contraction frequency was evaluated in vitro using human muscle cells and motor neurons derived from hiPSC co-cultures, by means of live-imaging video of localized contractile muscle fibers recorded with an InCell 2200 automated microscope during 60 seconds, before and after treatment (after treatment, at each of the established timepoints).
Human muscle cells were cultivated at a density of 1×10^6 cells in T75 cm^2 flasks and then transferred to 96 well plates for differentiation. Motor neurons derived from hiPSC were transferred onto the 96 well plates containing the muscle cells in a differentiation medium. Co-cultures were maintained for 10 days in order to generate neurons junctions with muscle fibers. Spontaneous contractions were observed within 5 days.
Co-cultures were then treated with control medium (basal), 1 μM α-bungarotoxin, 0.5 mg/mL of acetyl hexapeptide-8 as a benchmark reference and 0.05 or 0.1 mg/mL of peptide Ac-SEQ ID NO: 8-NH2. Movies of co-cultures were recorded during 60 seconds before treatment and, after 30 minutes of incubation, movies were recorded again during 60 seconds. The culture plate was incubated again for 1 h 30 min with compounds (2 h of total incubation), and movies of co-cultures were recorded again during 60 seconds. The culture plate was incubated again for a total of 24 h with compounds and at the end of the incubation movies were recorded again during 60 seconds. Finally, compounds were washed out and a last recording after 24 h from said washed out of the compounds was done to assess an eventual recovery of muscle contractions (recovery).
Frequencies of contraction were calculated before and after each incubation. For each culture condition, 6 wells were analyzed.

collagen type I = experiment: Collagen type I production by fibroblasts (competitive ELISA); type: cell-based, human; conditions: vs non-treated cells
Experimental: The potential of said peptide Ac-SEQ ID NO: 8-NH2 to modulate the production of collagen type I as a potential improver of skin firming was evaluated in vitro using human skin fibroblasts.
Cell were seeded in 96-well plates at 1×10^4 cells/well and maintained for 24 h at standard culture conditions (37° C., 95% humidity, 5% CO2). After 24 h incubation, medium was removed and new medium containing the peptide Ac-SEQ ID NO: 8-NH2 at 0.01, 0.05 or 0.1 mg/mL was added to the wells concentration. Treatment lasted 24 hours or 48 hours and at the end of the assay cell culture media were collected. Cells treated only with culture medium were used as basal control (non-treated cells).
After 24 and 48 hours of treatment the amount of collagen type I produced and released by the cells (ex-novo collagen type I synthesis) was measured in cell culture medium by means of ELISA assay. The results of the test item were compared to basal control condition (non-treated cells). The treatments were performed in triplicate in three different experimental sessions.
The determination of collagen type I synthesis was carried out by means of a competitive ELISA method. Samples were added to enzyme wells which were pre-coated with antibodies, then the recognition antigen labeled with Horseradish peroxidase (HRP) was added; after being incubated 1 hour at 37° C., both compete with solid phase antigen and form immune complex. After washing with phosphate buffer solution, the combined HRP catalyzes Tetramethylbenzidine (TMB) into blue, and turns into yellow by the action of acid; it has an absorption peak under 450 nm wavelength and its absorbance is negatively correlated with antigen density of sample. The plates were read by microplate reader.
The quantitative determination uses a calibration curve made-up of known and growing concentrations of standard collagen type 1. The results are expressed as collagen type I concentration (μg/ml) in 50 μL cell culture medium.
Three trials were performed for each determination in three different experimental sessions. The % variation in collagen type I content between negative controls and samples was calculated and a direct index of the efficacy of the peptide to increase collagen I synthesis was obtained.

Munc18/Syntaxin-1, sequence (Q16623 whole entry): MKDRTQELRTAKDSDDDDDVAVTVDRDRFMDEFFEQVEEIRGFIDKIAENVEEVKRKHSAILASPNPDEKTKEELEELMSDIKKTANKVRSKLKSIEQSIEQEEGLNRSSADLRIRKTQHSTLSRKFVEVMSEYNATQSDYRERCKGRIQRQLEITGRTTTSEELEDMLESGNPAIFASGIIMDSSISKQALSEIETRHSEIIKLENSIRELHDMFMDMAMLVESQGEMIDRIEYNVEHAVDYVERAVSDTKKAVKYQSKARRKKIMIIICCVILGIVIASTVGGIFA

- Maximum inhibition of Munc18-Syntaxin-1 binding (Munc18/Syntaxin-1): 37%
Substance: Ac-His-Ala-Leu-Arg-Phe-Trp-NH2 [Ac-SEQ ID NO: 8-NH2]
- muscle contraction frequency with regard to the basal non-treated cells ([1]; 0.05 mg/mL, 24 h incubation): 23%
- muscle contraction frequency with regard to the basal non-treated cells ([1]; 0.05 mg/mL, after 30 min): 25%
- muscle contraction frequency with regard to the basal non-treated cells ([1]; 0.05 mg/mL, recovery 24 h after washout): 65%
- muscle contraction frequency with regard to the basal non-treated cells ([1]; 0.1 mg/mL, 24 h incubation): 10%
- muscle contraction frequency with regard to the basal non-treated cells ([1]; 0.1 mg/mL, after 30 min): 18%
- muscle contraction frequency with regard to the basal non-treated cells ([1]; 0.1 mg/mL, recovery 24 h after washout): 35%
- increase of collagen type I production (collagen type I; 0.01 mg/mL, 24 h): 9%
- increase of collagen type I production (collagen type I; 0.01 mg/mL, 48 h): 16%
- increase of collagen type I production (collagen type I; 0.05 mg/mL, 24 h): 31%
- increase of collagen type I production (collagen type I; 0.05 mg/mL, 48 h): 29.5%
- increase of collagen type I production (collagen type I; 0.1 mg/mL, 24 h): 37.5%
- increase of collagen type I production (collagen type I; 0.1 mg/mL, 48 h): 56.5%
